The test system of one data set is Ca^2+ sparks (RyR). Particulars: cited from earlier work.
The next data set has as its system rat stroke models. The settings on record: cited from earlier work.
Data set [1] addresses maxi-K potassium channels (Homo sapiens, UniProt Q12791). Particulars: cited from earlier work.
Another data set has as its target T1, BKCa channel (mSlo) (Mus musculus, UniProt Q08460).
T1 construct: expressed in transfected cells
Nature of the data set: Whole cell patch clamp of BKCa channel in stably transfected mSlo HEK293 cells. In kind it is cell-based, murine. The protocol:
(A-B) Representative current traces from whole cell patch with 5 mM EGTA in patch pipette. […] Voltage steps are shown at the right of each tracing; note different maximum voltage steps +200 mV (upper) vs. +120 mV (lower). […] Tail currents are in opposite direction due to final voltage step (+60 upper, −60 mV left). (C) G-V curves were constructed for indicated conditions utilizing tail analysis (Xia, et al., Multiple regulatory sites in large-conductance calcium-activated potassium channels. Nature, 2002. 418(6900):880-4). Solid lines were fitted with Boltzmann function (Origin 7.5). […] Representative of>30 similar experiments with rat and murine (pictured) s1o. (D-E) Stable mslo HEK293 cells were studied in whole cell configuration with pipette solution containing 5 mM EGTA (˜0 free Ca^2+).
(§1) Current was monitored with ramp protocol; holding potential −60 mV, with ramp from −80 mV to +150 mV over 500 ms. Extracellular application of NS-1619 (10 μM) increased current as previously described (Olesen, et al., Selective activation of Ca(2+)-dependent K+channels by novel benzimidazolone. Eur. J. Pharmacol., 1994. 251(1):53-9). […] Analysis performed using tail analysis with normalization as previously described (Xia, et al., Multiple regulatory sites in large-conductance calcium-activated potassium channels. Nature, 2002. 418(6900):880-4). (B) HEK cells co-expressing α and β1 subunits were studied in whole cell configuration with 5 mM EGTA (intra-pipette). […] (C) Human VSMC were studied in outside-out configuration, utilizing single channel recordings, recorded at +60 mV. […] Identification of the BKCa channel was determined by conductance and inhibition by iberiotoxin and TEA. […] Murine femoral arterial rings from were isolated and placed in a wire myograph. […] Figure representative of 4 similar experiments. Error bars are SEM; * p<0.001.
In general terms: The patch-clamp technique gives a direct electrical read-out from membranes.

In the next data set the target is BKCa channel (Mus musculus, UniProt Q08460). In words: Single channel recordings of BKCa channel, outside-out and inside-out patches (cell-free configuration). In kind it is biochemical. The protocol:
Amplitude histograms are shown on the right. […] Ca^2+ was maintained at 0 (virtual; actual<20 nM) through dialysis using patch pipette. Since cellular compartments are excluded from patch and outside-out patch perfused locally with 0 Ca^2+, activation is Ca^2+-independent. […] Amplitude histograms are shown on the right.

The target in data set [2] is T2, BKCa channel mSlo and β1 subunit (Mus musculus, UniProt Q08460).
T2 construct: expressed in transfected cells; host or cells: HEK293
In words: Whole cell recording in HEK cells co-expressing α and β1 subunits. The data set is classed as cell-based, murine. Here is the method:
as §1

Data set [3] concerns Murine femoral arterial rings. In words: Phenylephrine induced constriction of femoral arterial rings, wire myograph. The data set is classed as cell-based. The protocol:
as §1

The target in data set [4] is T3, PKCδ (Homo sapiens, UniProt Q05655). Particulars: read-out: IC50 for PKCδ; in vitro; cited from earlier work.
For the next data set, the system named is other PKC isozymes. Particulars: in vitro; cited from earlier work.
The target in the next data set is PKA (Homo sapiens, UniProt P17612). Particulars: read-out: IC50 for PKA; in vitro; cited from earlier work.
A further data set addresses casein kinase II (Homo sapiens, UniProt P68400). The settings on record: read-out: IC50 for casein kinase II; in vitro; cited from earlier work.
Data set [5] concerns the target T3, PKCδ. Particulars: more recent data; cited from earlier work.
In data set [6] the test system is mitochondria in intact cells. The settings on record: cited from earlier work.
Another data set addresses PKCα (Homo sapiens, UniProt P17252). The settings on record: rottlerin 20 μM; 0.1 mM (or 0.01 mM) ATP; phosphatidylserine; histone H1 or myelin basic protein substrate; cited from earlier work.
The target of data set [7] is T3, PKCδ. The settings on record: rottlerin 20 μM; 0.1 mM (or 0.01 mM) ATP; phosphatidylserine; histone H1 or myelin basic protein substrate; cited from earlier work.
For another data set, the system named is 3T3-L1 adipocytes. Particulars: read-out: IC50, inhibition of insulin-induced glucose uptake; cited from earlier work.
The target in data set [8] is T4, glutamate-aspartate transporter (GLAST) (Homo sapiens, UniProt P43003).
T4 construct: host or cells: astrocytes (from the cited title only)
The settings on record: cited from earlier work.

In the next data set the test system is rats. The settings on record: purified rottlerin 10-20 mg/kg/day × 6 days; cited from earlier work.
The next data set has as its system guinea pigs. Particulars: purified rottlerin 10-20 mg/kg/day × 6 days; cited from earlier work.
The subject of data set [9] is canine subarachnoid hemorrhage model. Particulars: rottlerin 5 μM injected into the cistema magna; cited from earlier work.
The target of data set [10] is T5, BKCa channels (Homo sapiens, UniProt Q12791). In words: Single channel recordings (outside-out) in human VSMC. In kind it is cell-based. On the set-up: endogenous in cells; host or cells: human vascular smooth muscle cells (VSMC) grown in vitro. Particulars: recorded at +60 mV. Here is the method: as §1
Another data set has as its system Ca^2+ channel. Particulars: cited from earlier work.
A further data set relates to Cl^− channel. Particulars: cited from earlier work.
In data set [11] the test system is porcine coronary myocytes. Particulars: 30 μM; through ryanodine receptor sensitive storage sites; cited from earlier work.
For a further data set, the system named is hypertensive rat model. The settings on record: hypertensive rat model compared to controls; cited from earlier work.
Data set [12] addresses T5, BKCa channels. The settings on record: cited from earlier work.
In data set [13] the target is BKCa channel α and β subunits (Homo sapiens, UniProt Q12791). Particulars: α and β subunits co-expressed; cited from earlier work.
The conditions of data set [14]: not told; cited from earlier work.

“Also recorded” adds a separate entry of the source. Where two headings read alike, the source gives them in different places. Where only a bound is given, the exact number is not on record here.

T3 sequence (Q05655 whole entry): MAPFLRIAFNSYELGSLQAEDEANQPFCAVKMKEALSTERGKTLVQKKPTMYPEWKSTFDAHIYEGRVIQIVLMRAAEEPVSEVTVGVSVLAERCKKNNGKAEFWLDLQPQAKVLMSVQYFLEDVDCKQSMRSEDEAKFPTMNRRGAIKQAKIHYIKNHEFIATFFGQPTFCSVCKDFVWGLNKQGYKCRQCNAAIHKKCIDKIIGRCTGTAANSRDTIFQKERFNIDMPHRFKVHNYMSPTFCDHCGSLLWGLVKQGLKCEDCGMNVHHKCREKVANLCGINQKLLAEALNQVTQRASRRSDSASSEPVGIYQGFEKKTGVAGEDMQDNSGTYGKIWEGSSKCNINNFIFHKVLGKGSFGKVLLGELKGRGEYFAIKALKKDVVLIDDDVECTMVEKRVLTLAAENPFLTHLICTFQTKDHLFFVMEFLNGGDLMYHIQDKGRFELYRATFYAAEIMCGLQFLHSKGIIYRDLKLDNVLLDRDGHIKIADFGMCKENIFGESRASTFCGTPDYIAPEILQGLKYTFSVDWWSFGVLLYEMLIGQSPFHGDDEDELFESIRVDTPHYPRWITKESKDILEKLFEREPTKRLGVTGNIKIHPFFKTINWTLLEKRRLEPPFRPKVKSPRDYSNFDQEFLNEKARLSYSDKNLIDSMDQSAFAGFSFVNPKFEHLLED
Chain of BKCa channel (Q08460 whole entry, the tested form may be a part): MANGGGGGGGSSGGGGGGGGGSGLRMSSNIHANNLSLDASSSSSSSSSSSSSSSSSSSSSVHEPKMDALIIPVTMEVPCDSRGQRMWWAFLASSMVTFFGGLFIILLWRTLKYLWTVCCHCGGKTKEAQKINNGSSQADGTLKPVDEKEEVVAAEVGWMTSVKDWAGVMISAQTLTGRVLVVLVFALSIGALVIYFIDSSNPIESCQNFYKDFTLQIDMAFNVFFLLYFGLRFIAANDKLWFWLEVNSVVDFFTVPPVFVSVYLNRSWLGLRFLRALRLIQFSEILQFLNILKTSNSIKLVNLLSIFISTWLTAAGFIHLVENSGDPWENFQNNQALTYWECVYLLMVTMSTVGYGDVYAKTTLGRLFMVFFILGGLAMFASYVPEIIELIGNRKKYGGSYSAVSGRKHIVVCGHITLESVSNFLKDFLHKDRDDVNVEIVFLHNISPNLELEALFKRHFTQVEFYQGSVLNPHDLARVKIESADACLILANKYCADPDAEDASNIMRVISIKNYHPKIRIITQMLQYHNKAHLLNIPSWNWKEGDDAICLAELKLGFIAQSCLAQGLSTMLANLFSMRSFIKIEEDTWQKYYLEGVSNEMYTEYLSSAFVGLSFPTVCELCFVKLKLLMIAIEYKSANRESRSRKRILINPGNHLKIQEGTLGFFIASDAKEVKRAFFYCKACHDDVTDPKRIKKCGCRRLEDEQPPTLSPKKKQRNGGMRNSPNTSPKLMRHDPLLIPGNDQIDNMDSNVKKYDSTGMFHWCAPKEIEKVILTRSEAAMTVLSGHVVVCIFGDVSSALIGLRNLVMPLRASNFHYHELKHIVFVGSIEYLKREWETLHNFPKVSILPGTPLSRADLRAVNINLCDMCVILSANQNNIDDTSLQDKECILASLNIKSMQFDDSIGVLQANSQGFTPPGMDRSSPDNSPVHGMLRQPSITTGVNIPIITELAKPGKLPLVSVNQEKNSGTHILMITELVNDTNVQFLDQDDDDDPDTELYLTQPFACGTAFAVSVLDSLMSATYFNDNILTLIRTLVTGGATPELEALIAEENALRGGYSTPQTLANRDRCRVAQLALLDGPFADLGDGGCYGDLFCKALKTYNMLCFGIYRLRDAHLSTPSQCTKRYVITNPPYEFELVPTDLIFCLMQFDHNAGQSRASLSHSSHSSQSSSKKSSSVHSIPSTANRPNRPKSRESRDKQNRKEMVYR
T1 sequence (Q08460 whole entry): as the sequence (Q08460 whole entry, the tested form may be a part) above
T5 sequence (Q12791 whole entry): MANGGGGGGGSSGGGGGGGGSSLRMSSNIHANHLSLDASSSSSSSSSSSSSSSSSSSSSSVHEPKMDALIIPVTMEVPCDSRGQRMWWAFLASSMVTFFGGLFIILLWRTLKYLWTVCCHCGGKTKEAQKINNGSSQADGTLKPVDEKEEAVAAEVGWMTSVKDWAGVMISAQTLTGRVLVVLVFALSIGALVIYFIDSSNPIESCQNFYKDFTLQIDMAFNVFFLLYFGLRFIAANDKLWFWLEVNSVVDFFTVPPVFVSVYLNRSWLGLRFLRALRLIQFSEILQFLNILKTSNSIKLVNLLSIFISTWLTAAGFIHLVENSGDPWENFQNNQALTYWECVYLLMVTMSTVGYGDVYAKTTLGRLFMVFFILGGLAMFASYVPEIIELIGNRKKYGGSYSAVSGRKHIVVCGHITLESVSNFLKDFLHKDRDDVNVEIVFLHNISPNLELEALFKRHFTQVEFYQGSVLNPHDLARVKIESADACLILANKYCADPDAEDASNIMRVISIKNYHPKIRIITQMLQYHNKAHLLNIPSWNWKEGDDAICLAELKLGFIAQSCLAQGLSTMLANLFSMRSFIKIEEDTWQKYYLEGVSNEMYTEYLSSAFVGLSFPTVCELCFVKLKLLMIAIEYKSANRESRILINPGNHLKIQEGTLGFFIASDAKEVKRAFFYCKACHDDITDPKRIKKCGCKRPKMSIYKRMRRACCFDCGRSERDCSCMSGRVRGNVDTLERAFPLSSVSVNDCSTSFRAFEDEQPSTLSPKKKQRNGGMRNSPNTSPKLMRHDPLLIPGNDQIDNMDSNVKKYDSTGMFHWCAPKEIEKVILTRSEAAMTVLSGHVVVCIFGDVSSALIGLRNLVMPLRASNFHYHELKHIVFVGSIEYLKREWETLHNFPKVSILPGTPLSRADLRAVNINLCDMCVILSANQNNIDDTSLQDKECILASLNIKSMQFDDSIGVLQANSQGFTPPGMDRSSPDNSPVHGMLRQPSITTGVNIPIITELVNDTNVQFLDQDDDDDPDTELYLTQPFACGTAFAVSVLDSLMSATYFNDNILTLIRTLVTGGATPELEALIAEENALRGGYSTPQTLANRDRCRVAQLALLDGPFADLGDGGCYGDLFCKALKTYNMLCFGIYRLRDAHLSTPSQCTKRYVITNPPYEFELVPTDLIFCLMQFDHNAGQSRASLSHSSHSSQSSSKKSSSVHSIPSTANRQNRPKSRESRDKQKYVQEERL
T2 sequence (Q08460 whole entry): as the sequence (Q08460 whole entry, the tested form may be a part) above
T2 sequence (Q16558 whole entry partner): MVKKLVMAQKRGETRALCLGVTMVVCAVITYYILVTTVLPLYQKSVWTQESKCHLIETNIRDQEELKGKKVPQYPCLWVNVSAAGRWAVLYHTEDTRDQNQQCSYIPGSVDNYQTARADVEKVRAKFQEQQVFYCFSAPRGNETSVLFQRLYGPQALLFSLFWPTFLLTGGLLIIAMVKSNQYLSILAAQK
Chain of maxi-K potassium channels (Q12791 whole entry): as the sequence (Q12791 whole entry) above
Chain of casein kinase II (P68400 whole entry): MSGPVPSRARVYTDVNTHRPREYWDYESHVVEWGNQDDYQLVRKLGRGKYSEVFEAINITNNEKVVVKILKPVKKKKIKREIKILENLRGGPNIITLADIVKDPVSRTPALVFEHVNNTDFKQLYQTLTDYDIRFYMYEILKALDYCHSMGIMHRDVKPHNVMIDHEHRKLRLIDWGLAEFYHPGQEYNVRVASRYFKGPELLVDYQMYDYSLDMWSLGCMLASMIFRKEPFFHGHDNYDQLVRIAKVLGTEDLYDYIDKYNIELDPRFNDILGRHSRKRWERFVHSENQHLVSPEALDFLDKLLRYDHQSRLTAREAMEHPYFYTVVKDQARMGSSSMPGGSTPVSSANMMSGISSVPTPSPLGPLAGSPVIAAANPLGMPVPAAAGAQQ
Chain of casein kinase II (P67870 whole entry partner): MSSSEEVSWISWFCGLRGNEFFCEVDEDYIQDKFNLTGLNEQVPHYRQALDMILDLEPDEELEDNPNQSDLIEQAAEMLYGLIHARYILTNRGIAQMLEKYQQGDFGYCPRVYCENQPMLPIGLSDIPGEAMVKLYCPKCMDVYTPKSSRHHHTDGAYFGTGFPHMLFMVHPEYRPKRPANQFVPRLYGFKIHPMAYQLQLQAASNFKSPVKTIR
Chain of BKCa channel α and β subunits (Q12791 whole entry): as the sequence (Q12791 whole entry) above
Chain of BKCa channel α and β subunits (Q16558 whole entry partner): as the sequence (Q16558 whole entry partner) above

As for Ryanodine, in the data set with Ca^2+ sparks (RyR), the “reduction of dilation to forskolin” value is given as 80%.
For the molecule `COc1ccc(Cl)cc1[C@]1(F)C(=O)Nc2cc(C(F)(F)F)ccc21` [BMS-204352], in the data set with rat stroke models, the brain infarct size result is “reduction in brain infarct size”. For the same molecule, the effect on current result was “almost no effect” in [1] (50 nM intracellular Ca2+) and “progressively greater increases in current” in [1] (higher intracellular Ca2+ concentrations).
`CC(=O)c1c(O)c(C)c(O)c(Cc2c(O)c3c(c(C(=O)/C=C/c4ccccc4)c2O)OC(C)(C)C=C3)c1O` [rottlerin, 5,7-dihydroxy-2,2-dimethyl-6-(2,4,6-trihydroxy-3-methyl-5-acetylbenzyl)-8-cinnamoyl-1,2-chromene]: the “BKCa channel activity on extracellular exposure” value on BKCa channel (mSlo) (0.5 μM via local perfusion after 25 min intracellular dialysis) was “significantly increased”. Also, the “BKCa channel activity/current on intracellular dialysis” value at BKCa channel (mSlo) (20 μM rottlerin in patch pipette, 5 mM EGTA, over 25 min) is reported as “minimal effect; also recorded: only a relatively small effect”. Also, the “tail currents (slowing of deactivation)” value on BKCa channel (mSlo) (after exposure to rottlerin (FIG. 4: 0.5 μM extracellular, 5 mM EGTA in pipette)) is on record as “significantly prolonged; also recorded: markedly prolonged”. Also, the “BKCa channel activation on local perfusion” value on BKCa channel (mSlo) (extracellular, pipette 5 mM EGTA (~0 free Ca2+)) was “activated channel”. In addition, the “current after NS-1619 administration” value at BKCa channel (mSlo) (rottlerin 0.5 μM added after NS-1619 (10 μM), 0 Ca2+) is “incrementally increased current”. Further, the BKCa channel activity entry on BKCa channel (mSlo) (rottlerin ≦100 nM, non-phosphorylated conditions, non-Ca2+ dependent, reversible) was “dramatically increased”. Further, the “single channel activity, outside-out patch” value at BKCa channel (rottlerin 0.5 μM local perfusion to extracellular side, 0 Ca2+ (actual <20 nM)) is listed as “activation of BKCa”. The “single channel activity, inside-out patch” value at BKCa channel (rottlerin 0.5 μM local perfusion, 0 Ca2+) is “activation of BKCa”. The channel conductance entry on BKCa channel (rottlerin 0.5 μM, amplitude histograms) is “does not significantly change”. Moreover, in data set [2] (HEK293 cells expressing both mSlo and β1 subunit), the channel activity entry was “activated the channel”. Also, the I-V curve result in data set [2] (rottlerin 0.5 μM, whole cell, 5 mM EGTA intra-pipette) was “significantly shifted the I-V curve to the left”. Besides, the “effect on phenylephrine mediated contraction” value in data set [3] (rottlerin 1 μM) was “no significant effect”. For the same molecule, in data set [3] (rottlerin 4 μM), the “reduction of phenylephrine mediated contraction” value is greater than 50%. Also, the “PE induced constriction of the vessel” value in [3] (rottlerin (0.5 μM), p<0.001, representative of 4 experiments) is given as “significantly inhibited”. Moreover, the IC50 (usually the concentration that gives 50% inhibition) was 3 to 6 µM at PKCδ [4]; 30 to 100 µM with other PKC isozymes; 30 to 100 µM at PKA; 30 to 100 µM on casein kinase II; 10 µM in the data set on 3T3-L1 adipocytes. On PKCδ [5], the “blocking PKCδ activity in vitro” value is listed as “ineffective”. In data set [6] (10 μM), the uncoupling of mitochondria result is recorded as “can uncouple mitochondria”. For the same molecule, the ATP levels result in [6] (PKC independent) was “reduce ATP levels”. Further, the “effect on PKCα activity” value on PKCα is given as “virtually no effect”. The “effect on PKCδ activity” value on PKCδ [7] is “virtually no effect”. Also, the “capacity of GLAST glutamate transporter” value in data set [8] is listed as “decrease the capacity”. Also, the fertility rate result in the data set on rats and in the data set with guinea pigs was “reduce the fertility rate” in each case. Besides, in data set [9], the cerebral vasospasm result is given as “inhibited the initial phase of cerebral vasospasm”. Further, in [9], the toxic effects result was “No toxic effects”. Besides, on BKCa channels [10] (rottlerin (0.5 μM) by local perfusion), the Po result is “significantly increased”. Moreover, the open dwell time entry on BKCa channels [10] (rottlerin (0.5 βM) by local perfusion) is given as “significantly increased”.
As for `O=c1[nH]c2cc(C(F)(F)F)ccc2n1-c1cc(C(F)(F)F)ccc1O` [NS-1619], the “peak K+ current” value at BKCa channel (mSlo) is listed as “activated”. In the data set on Ca^2+ channel, the “Ca2+ channel” value was “inhibits”. In the data set with Cl^− channel, the Cl- channel entry was “inhibits”. Besides, the “intracellular Ca2+ concentration” value in [11] is recorded as “increase intracellular Ca^2+ concentration”. Also, the “efficacy in mediating vascular relaxation” value in the data set with hypertensive rat model is “diminished”.
Take dehydrosoyasaponin-I [DHS-I]: on BKCa channels [12], the BKCa channel activation result was “activate BKCa channels”. For the same molecule, in data set [13], the channel activity result is reported as “increases channel activity”. The membrane permeability entry in [14] is “poor”.

(Values after US20090111868A1 (priority 2004, published 2009).)
